Results on 8 compounds are retold here after PubChem BioAssay AID1259407 (Chemical Carcinogenesis Research Information System (CCRIS), 2018).

The data set deals with CCRIS mutagenicity, Ames/micronucleus/aberration tests. The experiment in a line: CCRIS mutagenicity studies.
Where [1] appears, read: Test System: AMES SALMONELLA TYPHIMURIUM, Strain/Indicator: TA102, Metabolic Activation: NONE, Method: PREINCUBATION
Setting [2] is: Test System: AMES SALMONELLA TYPHIMURIUM, Strain/Indicator: TA98, Metabolic Activation: NONE, Method: PREINCUBATION
Where [3] appears, read: Test System: AMES SALMONELLA TYPHIMURIUM, Strain/Indicator: TA100, Metabolic Activation: NONE, Method: PREINCUBATION
Where [4] appears, read: Test System: AMES SALMONELLA TYPHIMURIUM, Strain/Indicator: TA98, Metabolic Activation: NONE, Method: STANDARD PLATE.
[5] abbreviates: Test System: AMES SALMONELLA TYPHIMURIUM, Strain/Indicator: TA100, Metabolic Activation: NONE, Method: STANDARD PLATE.
[6] abbreviates: Test System: AMES SALMONELLA TYPHIMURIUM, Strain/Indicator: TA1538, Metabolic Activation: NONE, Method: STANDARD PLATE.
The mark [7] stands for this setting: Test System: AMES SALMONELLA TYPHIMURIUM, Strain/Indicator: TA98, Metabolic Activation: RAT, LIVER, S-9, AROCLOR 1254, Method: STANDARD PLATE.

Active and inactive are the calls of the source. No rule for the calls is given here.

As to `Cc1c(N)nc([C@H](CC(N)=O)NC[C@H](N)C(N)=O)nc1C(=O)N[C@H](C(=O)N[C@H](C)[C@@H](O)[C@H](C)C(=O)N[C@H](C(=O)NCCc1nc(-c2nc(C(=O)NCCCNCCCN=C(N)CC3CCC(Cl)CC3)cs2)cs1)[C@@H](C)O)[C@@H](O[C@@H]1O[C@@H](CO)[C@@H](O)[C@H](O)[C@@H]1O[C@H]1O[C@H](CO)[C@@H](O)[C@H](OC(N)=O)[C@@H]1O)c1cnc[nH]1` (some centres undefined), the mutagenic call was “active; positive” (Test System: AMES SALMONELLA TYPHIMURIUM, Strain/Indicator: TA94, Metabolic Activation: NONE, Method: PREINCUBATION) and “active; positive” under setting [1].
Take `O=C1C(=O)c2ccccc2-c2ccccc21`: the mutagenic call is “inactive; negative” (Test System: AMES SALMONELLA TYPHIMURIUM, Strain/Indicator: TA97A, Metabolic Activation: NONE, Method: PREINCUBATION); “inactive; negative” under setting [2]; “inactive; negative” under setting [3]; “inactive; negative” under setting [1]; “inactive; negative” (Test System: AMES SALMONELLA TYPHIMURIUM, Strain/Indicator: TA104, Metabolic Activation: NONE, Method: PREINCUBATION).
Take `CCCCCCCCCCCC(=O)OOC(=O)CCCCCCCCCCC`: the mutagenic call by setting is: (Test System: AMES SALMONELLA TYPHIMURIUM, Strain/Indicator: TA98, Metabolic Activation: HAMSTER, LIVER, S-9, AROCLOR 1254 (10%), Method: STANDARD PLATE) “inactive; negative”; under setting [4], “inactive; negative”; (Test System: AMES SALMONELLA TYPHIMURIUM, Strain/Indicator: TA98, Metabolic Activation: RAT, LIVER, S-9, AROCLOR 1254 (10%), Method: STANDARD PLATE) “inactive; negative”; (Test System: AMES SALMONELLA TYPHIMURIUM, Strain/Indicator: TA100, Metabolic Activation: HAMSTER, LIVER, S-9, AROCLOR 1254 (10%), Method: STANDARD PLATE) “inactive; negative”; under setting [5], “inactive; negative”; (Test System: AMES SALMONELLA TYPHIMURIUM, Strain/Indicator: TA100, Metabolic Activation: RAT, LIVER, S-9, AROCLOR 1254 (10%), Method: STANDARD PLATE) “inactive; negative”. Besides, the mutagenic call is, setting by setting: (Test System: AMES SALMONELLA TYPHIMURIUM, Strain/Indicator: TA1535, Metabolic Activation: HAMSTER, LIVER, S-9, AROCLOR 1254 (10%), Method: STANDARD PLATE) “inactive; negative”; (Test System: AMES SALMONELLA TYPHIMURIUM, Strain/Indicator: TA1535, Metabolic Activation: NONE, Method: STANDARD PLATE) “inactive; negative”; (Test System: AMES SALMONELLA TYPHIMURIUM, Strain/Indicator: TA1535, Metabolic Activation: RAT, LIVER, S-9, AROCLOR 1254 (10%), Method: STANDARD PLATE) “inactive; negative”; (Test System: AMES SALMONELLA TYPHIMURIUM, Strain/Indicator: TA1537, Metabolic Activation: HAMSTER, LIVER, S-9, AROCLOR 1254 (10%), Method: STANDARD PLATE) “inactive; negative”; (Test System: AMES SALMONELLA TYPHIMURIUM, Strain/Indicator: TA1537, Metabolic Activation: NONE, Method: STANDARD PLATE) “inactive; negative”; (Test System: AMES SALMONELLA TYPHIMURIUM, Strain/Indicator: TA1537, Metabolic Activation: RAT, LIVER, S-9, AROCLOR 1254 (10%), Method: STANDARD PLATE) “inactive; negative”. In addition, the mutagenic call (Test System: AMES SALMONELLA TYPHIMURIUM, Strain/Indicator: TA1538, Metabolic Activation: HAMSTER, LIVER, S-9, AROCLOR 1254 (10%), Method: STANDARD PLATE) is “inactive; negative”; the mutagenic call under setting [6] was “inactive; negative”; the mutagenic call (Test System: AMES SALMONELLA TYPHIMURIUM, Strain/Indicator: TA1538, Metabolic Activation: RAT, LIVER, S-9, AROCLOR 1254 (10%), Method: STANDARD PLATE) is “inactive; negative”; the mutagenic call (Test System: MOUSE LYMPHOMA, Strain/Indicator: L5178Y (TK+/TK-), Metabolic Activation: NONE, Method: SUSPENSION/PLATE) was “inactive; negative. reevaluation of results: inconclusive”; the mutagenic call (Test System: MOUSE LYMPHOMA, Strain/Indicator: L5178Y (TK+/TK-), Metabolic Activation: RAT, LIVER, S-9, AROCLOR 1254, Method: SUSPENSION/PLATE) is “inactive; negative. reevaluation of results: inconclusive”.
For `[Cl][Ti]([Cl])[Cl]`, the mutagenic call was “inactive; negative” under setting [2]; “inactive; negative” (Test System: AMES SALMONELLA TYPHIMURIUM, Strain/Indicator: TA98, Metabolic Activation: RAT LIVER S-9, PHENOBARBITAL AND BETA-NAPHTHOFLAVONE, Method: PREINCUBATION); “inactive; negative” under setting [3]; “active; positive” (Test System: AMES SALMONELLA TYPHIMURIUM, Strain/Indicator: TA100, Metabolic Activation: RAT LIVER S-9, PHENOBARBITAL AND BETA-NAPHTHOFLAVONE, Method: PREINCUBATION); “inactive; negative” (Test System: AMES SALMONELLA TYPHIMURIUM, Strain/Indicator: TA1535, Metabolic Activation: NONE, Method: PREINCUBATION); “inactive; negative” (Test System: AMES SALMONELLA TYPHIMURIUM, Strain/Indicator: TA1535, Metabolic Activation: RAT LIVER S-9, PHENOBARBITAL AND BETA-NAPHTHOFLAVONE, Method: PREINCUBATION). In addition, the mutagenic call (Test System: AMES SALMONELLA TYPHIMURIUM, Strain/Indicator: TA1537, Metabolic Activation: NONE, Method: PREINCUBATION) is “inactive; negative”; the mutagenic call (Test System: AMES SALMONELLA TYPHIMURIUM, Strain/Indicator: TA1537, Metabolic Activation: RAT LIVER S-9, PHENOBARBITAL AND BETA-NAPHTHOFLAVONE, Method: PREINCUBATION) was “inactive; negative”; the mutagenic call (Test System: AMES SALMONELLA TYPHIMURIUM, Strain/Indicator: TA1538, Metabolic Activation: NONE, Method: PREINCUBATION) was “inactive; negative”; the mutagenic call (Test System: AMES SALMONELLA TYPHIMURIUM, Strain/Indicator: TA1538, Metabolic Activation: RAT LIVER S-9, PHENOBARBITAL AND BETA-NAPHTHOFLAVONE, Method: PREINCUBATION) was “inactive; negative”; the mutagenic call (Test System: E.COLI, Strain/Indicator: WP2UVRA, Metabolic Activation: NONE, Method: PREINCUBATION) was “inactive; negative”; the mutagenic call (Test System: E.COLI, Strain/Indicator: WP2UVRA, Metabolic Activation: RAT LIVER S-9, PHENOBARBITAL AND BETA-NAPHTHOFLAVONE, Method: PREINCUBATION) is “inactive; negative”.
For `Nc1ccc(Oc2ccc(Oc3ccc(N)cc3)cc2)cc1`, the mutagenic call by setting is: under setting [2], “inactive; negative”; under setting [3], “inactive; negative”; (Test System: AMES SALMONELLA TYPHIMURIUM, Strain/Indicator: TA100, Metabolic Activation: RAT, LIVER, S-9, PCB, Method: PREINCUBATION) “active; positive”.
As for `Cc1ccc2c(c1)c(C)c1c3ccccc3nc-1n2C`, the mutagenic call (Test System: AMES SALMONELLA TYPHIMURIUM, Strain/Indicator: TA97, Metabolic Activation: RAT, LIVER, S-9, AROCLOR 1254, Method: STANDARD PLATE) was “active; positive”; the mutagenic call under setting [7] was “active; positive”; the mutagenic call (Test System: AMES SALMONELLA TYPHIMURIUM, Strain/Indicator: TA102, Metabolic Activation: RAT, LIVER, S-9, AROCLOR 1254, Method: STANDARD PLATE) was “active; positive”.
Regarding `OC1CC=Cc2c1cc1ccc3cccc4ccc2c1c34` (centres undefined), the mutagenic call under setting [7] was “active; positive”.
As to `CCN(CC)c1ccc(N=Nc2ccc(N=Nc3c(S(=O)(=O)O)cc4ccc(N)cc4c3O)c(OCCO)c2)cc1`, the mutagenic call is “inactive; negative” under setting [4]; “active; positive” under setting [7]; “inactive; negative” under setting [5]; “inactive; negative” (Test System: AMES SALMONELLA TYPHIMURIUM, Strain/Indicator: TA100, Metabolic Activation: RAT, LIVER, S-9, AROCLOR 1254, Method: STANDARD PLATE); “inactive; negative” under setting [6]; “active; positive” (Test System: AMES SALMONELLA TYPHIMURIUM, Strain/Indicator: TA1538, Metabolic Activation: RAT, LIVER, S-9, AROCLOR 1254, Method: STANDARD PLATE).
